A short description of series [1]: Proton dissociation constants (pKa) of the proligands by pH-potentiometry, UV–vis and 1H NMR titrations. The format is physicochemical. As to conditions: 30% (v/v) DMSO/H2O solvent mixture, I = 0.1 M (KCl), t = 25 °C. The method, then: The path length was 1 cm.
^1H NMR spectroscopic studies were carried out on a Bruker Avance III HD instrument. All spectra were recorded with the WATERGATE water suppression pulse scheme using sodium trimethylsilylpropanesulfonate as internal standard.

Series [2] deals with T1, mR2 RNR protein (Mus musculus, UniProt P11157).
T1 construct: made in house
T1 sequence (P11157 1-390): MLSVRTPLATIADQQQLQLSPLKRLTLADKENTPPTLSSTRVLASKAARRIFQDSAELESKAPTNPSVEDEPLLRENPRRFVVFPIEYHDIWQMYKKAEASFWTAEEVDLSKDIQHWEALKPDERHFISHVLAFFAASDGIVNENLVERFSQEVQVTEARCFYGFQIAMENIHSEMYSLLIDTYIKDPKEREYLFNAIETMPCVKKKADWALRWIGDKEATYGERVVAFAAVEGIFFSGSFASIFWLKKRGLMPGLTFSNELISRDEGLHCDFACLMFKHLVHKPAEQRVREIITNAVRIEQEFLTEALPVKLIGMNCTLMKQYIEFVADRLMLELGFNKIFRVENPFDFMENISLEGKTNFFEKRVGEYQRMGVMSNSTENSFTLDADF
In words: Tyrosyl radical reduction in mR2 RNR protein (EPR). The format is biochemical. Conditions: 20 μM mR2, 1:1 protein-to-drug. As for the experimental part:
Since α-N-heterocyclic TSCs are very potent R2 RNR inhibitors, the time-dependent Y^• reduction of the mR2 RNR protein was measured. The effect of equimolar concentrations of the proligands H2L^3–H2L^6 and their copper(II) complexes 3–6, in the absence and presence of an external reductant DTT, is shown in Figure 7.
Figure 7 Tyrosyl radical reduction kinetics of mR2 RNR (20 μM) in the absence (triangles) and in the presence (circles) of an external reductant (2 mM DTT) at the 1:1 protein-to-drug ratio, measured by EPR spectroscopy at 30 K, for (a) H2L^3 (black), H2L^4 (red), H2L^5 (blue), and H2L^6 (green) and for (b) 3 (black), 4 (red), 5 (blue), and 6 (green).
Samples containing 20 μM mR2 in 50 mM HEPES buffer, pH 7.5/100 mM NaCl, 20 μM compound in 1% (v/v) DMSO/H2O, in the absence or presence of 2 mM DTT, were incubated for indicated times and quickly frozen in cold isopentane. The same samples were used for repeated incubations at room temperature. The experiments were performed in duplicate.

In series [3] the test system is MES-SA/Dx5 cells. Put plainly: Fluorescent protein-based cytotoxicity assay, MES-SA/Dx5. Conditions: for IC50: Homo sapiens, MES-SA/Dx5, 120 h, ± SD, n = 3; for SR, selectivity ratio IC50 (MES-SA)/IC50 (MES-SA/Dx5): in the absence of TQ. The format is cell-based, human. The source says:
(§1) The cytotoxic activity of proligands H2L^3–H2L^6 and their copper(II) complexes 3–6 was investigated in the MES-SA (human uterine sarcoma) and in its MDR counterpart (MES-SA/Dx5) cell lines by a fluorescent protein-based assay.[73]
(§2) The human uterine sarcoma cell lines MES-SA and the doxorubicin selected MES-SA-Dx5 were obtained from ATCC (MES-SA: No. CRL-1976, MES-SA/Dx5: No. CRL-1977) and were used for the intracellular ROS generation studies. For cytotoxicity, we used the fluorescent cell lines MES-SA mCherry and MES-SA/Dx5 eGFP, which were created by lentiviral transductions of the respective genes.[73] The phenotype of the resistant cells was maintained by 500 nM doxorubicin treatment a week before use and was verified using cytotoxicity assays. Cells were cultivated at 37 °C, 5% CO2 in Dulbecco’s modified Eagle's Medium (DMEM, Sigma-Aldrich), supplemented with 10% fetal bovine serum, 5 mM glutamine, and 50 unit/mL penicillin and streptomycin (Thermo Fisher).
(§3) MES-SA mCherry and MES-SA/Dx5 eGFP cell suspensions were seeded after trypsinization at 2500 cells/20 μL density on 384-well plates, containing 20 μL of completed medium. The next day, serial dilution of the compounds was prepared and added in an additional 20 μL, with or without 0.4 μM Tariquidar. Liquid handling steps were performed by a Hamilton StarLet robot. […] The mean and standard deviation of the pIC50 values were calculated and converted to IC50 values.

Series [4] relates to MES-SA cells. In words: Fluorescent protein-based cytotoxicity assay, MES-SA. The series is classed as cell-based, human. As to conditions: Homo sapiens, MES-SA; 120 h; ± SD; n = 3.
Description: as §1, §2, §3

For series [5] the following is noted: calculated at pH 7.4, aqueous solution ref 69, 52; cited from earlier work.
Series [6] concerns MES-SA cells. Put plainly: Intracellular ROS generation, DCF-DA assay, MES-SA. The series is classed as cell-based, human. Conditions: 25 μM, 4 h treatment. The method, then: (§4) ROS accumulation was evaluated in both the MES-SA and MES-SA/Dx5 cell lines by using 2′,7′-dichlorodihydrofluorescein diacetate (H2DCF-DA) as a probe. This compound enters the cells by passive diffusion, and after oxidation, it is converted to the highly fluorescent 2′,7′-dichlorofluorescein (DCF), enabling the estimation of intracellular ROS levels. ROS generation was measured after a 4 h treatment with 25 μM H2L^6 or 6; tert-butylhydroperoxide (TBHP, 25 μM) was used as a positive control.
(§5) Figure 6 Intracellular ROS generation measured by the DCF-DA assay in MES-SA (filled bars) and MES-SA/Dx5 (lattice bars) cells, after a 4 h treatment with the indicated compounds at 25 μM: H2L^6 (gray), complex 6 (yellow), Triapine (green), and TBHP (brown). Values indicate fold change relative to the fluorescence of the cells treated with fluorescent probe alone (orange bars), following normalization to the initial fluorescence at the beginning of the incubation. Paired t test to the medium control was calculated; […]; **P < 0.01. Values were calculated from at least three independent experiments.
(§6) The human uterine sarcoma cell lines MES-SA and the doxorubicin selected MES-SA-Dx5 were obtained from ATCC (MES-SA: No. CRL-1976, MES-SA/Dx5: No. CRL-1977) and were used for the intracellular ROS generation studies. […]

For series [7], the system named is MES-SA/Dx5 cells. Put plainly: Intracellular ROS generation, DCF-DA assay, MES-SA/Dx5. Conditions: 25 μM, 4 h treatment. The series is classed as cell-based, human. The method, then:
as §4, §5, §6

Details of series [8]: method as in PMID 32336116. Conditions: copper(II) complexes of the named TSCs, measured under similar conditions ref 67; cited from earlier work.
In series [9] the test system is MES-SA cells. Put plainly: dNTP pools in MES-SA cell extracts. The format is cell-based, human. As to conditions: 24 h. The source says: RNR reduces NDPs to their corresponding deoxy derivatives (dNDPs), which are further converted into dNTPs.[77] Therefore, we investigated the effect of the most toxic proligand H2L^6 and its copper(II) complex 6 on cellular dNTP levels, using Triapine as a control. […] Triapine also elicits a dATP pool decrease while increasing the pools of the three other dNTP species. Decreasing the dATP pool to zero can give rise to the observed cytotoxic effect upon treatment with Triapine. Complex 6 seems to affect dNTP pools by a more complex mechanism, which is nevertheless consistent with R2 inhibition.[79]
Figure 8 Measurement of dNTP pools in MES-SA cell extracts following a 24 h treatment with proligand H2L^6, complex 6, or Triapine at the indicated concentrations. Three independent experiments were performed; error bars represent standard error; stars indicate significant changes compared to the respective control (Ctrl) at p < 0.05.
After a 24 h incubation with or without drugs, MES-SA cells were washed twice with PBS and trypsinized for 5 min. […] The pellet containing dNTPs was redissolved in 50 μL of RNase-free water and stored at −20 °C. dNTP-containing samples were measured by a nucleotide incorporation-based fluorescent method.[97] We used a long synthetic oligonucleotide (197 nt) as a template, which contains a dNTP-detection site, the sole complementary base to that of the dNTP to be quantified directly adjacent to the annealed primer. […] In addition to the limiting amount of dNTP to be quantified, the polymerization reaction mix contained the other three dNTPs in large excess. The double-stranded DNA product is detected by the EvaGreen Dye. The 2X master mix for the DNA synthesis reaction contained the following: 0.275 μM primer (Merck KGaA, Darmstadt, Germany), 0.25 μM template (IDT, Coralville, Iowa, USA), 50 μM dNTP mix (excluding the dNTP to be measured in the given experiment to limit its source to the sample), and 1.25 μM EvaGreen (Biotium). […] Fluorescence amplitude data were extracted from the Bio-Rad CFX Maestro Software and analyzed using Excel and Origin. […]

Series [10] has as its target T1, mR2 RNR protein. More on the design: method as in PMID 21955844. Conditions: in 3 min ref 76; cited from earlier work.

Where two headings read alike, the source gives them in different places.

The IC50 is the concentration that gives 50% inhibition. A high value points to lower potency. As for `Cc1cc(NC(=S)N/N=C/c2ncccc2CN2CCOCC2)cc(C)c1O` [H2L^3], the pKa in series [1] (UV–vis spectrophotometry, read-out: pKa1) was 1.53 ± 0.01; in series [1] (pH–potentiometry, read-out: pKa1) it was less than 2; in series [1] (pH–potentiometry, read-out: pKa2), 5.62 ± 0.06; in series [1] (pH–potentiometry, read-out: pKa3), more than 10.5. Moreover, the “Y• reduced in mR2 protein” value on mR2 RNR protein [2] (after 15 min, in the presence of 2 mM DTT) is recorded as approximately 70%; on mR2 RNR protein [2] (without DTT) it was “ca. 20%”. The IC50 in the series on MES-SA/Dx5 cells [3] turned out to be 13100 ± 3200 nM; with MES-SA cells [4] it was 2900 ± 400 nM. In addition, the “SR, selectivity ratio IC50 (MES-SA)/IC50 (MES-SA/Dx5)” value in the series with MES-SA/Dx5 cells [3] came to 0.22.

For `CN(C)C(=S)NN=Cc1ccccn1` [PTSC], in series [5], the pCu is on record as 13.17.

On to `NC(=S)NN=Cc1ncccc1N` [Triapine, 3-aminopyridine-2-carboxaldehyde thiosemicarbazone, reference compound], for which the “Intracellular ROS generation” value with MES-SA cells [6] was “failed to induce ROS”. Moreover, the “Intracellular ROS generation” value in the series on MES-SA/Dx5 cells [7] is on record as “failed to induce ROS”. In addition, the “kobs, reduction by GSH” value in series [8] is 0.10 min^–1. Further, in the series with MES-SA cells [9], the dATP pool result was “decrease” and the “pools of the three other dNTP species” value is recorded as “increasing”. In addition, on mR2 RNR protein [10], the “mR2 Y• reduced” value is 100%. In addition, in the series with MES-SA/Dx5 cells [3], half-maximal inhibition (IC50) required 2800 ± 500 nM and the “SR, selectivity ratio IC50 (MES-SA)/IC50 (MES-SA/Dx5)” value is recorded as 0.18. For the same compound, the IC50 in the series with MES-SA cells [4] stood at 520 ± 100 nM.

(Values after paper PMC11181322, “Copper(II) Complexes with Isomeric Morpholine-Substituted 2-Formylpyridine Thiosemicarbazone Hybrids as Potential Anticancer Drugs Inhibiting Both Ribonucleotide Reductase and Tubulin Polymerization: The Morpholine Position Matters” (Journal of Medicinal Chemistry, 2024).)
